Reference: ChEMBL document CHEMBL4354782, “Quinolone antibiotics” (Medchemcomm, 2019)
Values after ≈ are worked out from the molar mass of the structure shown.

Legend:
Klebsiella = test: Antibacterial activity against Klebsiella by agar diffusion method; format: functional
Streptococcus pyogenes = test: Antibacterial activity against Streptococcus pyogenes by agar diffusion method; format: functional
Streptococcus pneumoniae = test: Antibacterial activity against Streptococcus pneumoniae by agar diffusion method; format: functional
Escherichia coli = test: Antibacterial activity against Escherichia coli by agar diffusion method; format: functional
[1] = Protein binding in human at 0.4 g, po; format: ADME; settings: in vivo, read-out: PB (converted)
Haemophilus influenzae = test: Antibacterial activity against Haemophilus influenzae with horse blood by agar diffusion method; format: functional
Pseudomonas aeruginosa = test: Antibacterial activity against Pseudomonas aeruginosa by agar diffusion method; format: functional
[2] = Half life in human at 0.4 g, po; format: ADME; settings: in vivo
Enterococcus = test: Antibacterial activity against Enterococcus by agar diffusion method; format: functional
[3] = AUC in human at 0.4 g, po; format: ADME; settings: in vivo
Staphylococcus aureus = test: Antibacterial activity against Staphylococcus aureus by agar diffusion method; format: functional
[4] = Cmax in human at 0.4 g, po; format: ADME; set-up: dose 0.4 g, route oral; settings: in vivo
[5] = AUC in human at 0.4 g, po by HPLC analysis; format: ADME, organism-based; settings: in vivo
[6] = Cmax in human at 0.4 g, po by HPLC analysis; format: ADME, organism-based; set-up: dose 0.4 g, route oral; settings: in vivo
Bacteroides fragilis = test: Antibacterial activity against Bacteroides fragilis by agar diffusion method; format: functional
Clostridium perfringens = test: microbe, parasite or virus in culture
[7] = Half life in human at 1 g, po administered for 4 times; format: ADME, organism-based; settings: in vivo
[8] = Cmax in human at 0.4 g, po bid; format: ADME, organism-based; set-up: dose 0.4 g, route oral; settings: in vivo
[9] = AUC in human at 0.4 g, po bid; format: ADME, organism-based; settings: in vivo
[10] = Protein binding in human at 0.4 g, po bid; format: ADME, organism-based; settings: in vivo, read-out: PB (converted)
[11] = Half life in human at 0.4 g, po bid; format: ADME, organism-based; settings: in vivo
[12] = Toxicity in human assessed as gastrointestinal effect
[13] = Cardiotoxicity in human QTc prolongation; format: toxicity
Homo sapiens = organism: Homo sapiens; test: Phototoxicity in human; format: organism-based; settings: in vivo
[14] = Toxicity in human assessed as arthralgia effect
[15] = Toxicity in human assessed as thrombocytopenia
[16] = Toxicity in human assessed as renal failure
[17] = Haemolytic activity in human; format: ADME, organism-based; settings: in vivo, read-out: Activity
[18] = AUC in human at 0.3 g, po; format: ADME; settings: in vivo
[19] = Toxicity in human assessed as CNS effect by measuring dizziness
[20] = Cmax in human at 0.3 g, po; format: ADME; set-up: dose 0.3 g, route oral; settings: in vivo
[21] = Toxicity in human assessed as hepatic eosinophilia effect

CCn1cc(C(=O)O)c(=O)c2cc(F)c(N3CCNC(C)C3)c(F)c21 (centres undefined) [LOMEFLOXACIN]
MIC90 (Klebsiella): 0.25 µg/mL (≈ 0.712 µM)
MIC90 (Streptococcus pyogenes): 4 µg/mL (≈ 11.4 µM)
MIC90 (Streptococcus pneumoniae): 4 µg/mL (≈ 11.4 µM)
MIC90 (Escherichia coli): 0.06 µg/mL (≈ 0.171 µM)
fraction unbound [1]: 0.9
MIC90 (Haemophilus influenzae): 0.06 µg/mL (≈ 0.171 µM)
MIC90 (Pseudomonas aeruginosa): 2 µg/mL (≈ 5.69 µM)
half-life [2]: 8 h
MIC90 (Enterococcus): 4 µg/mL (≈ 11.4 µM)
AUC [3]: 26000 ng·h/mL
MIC90 (Staphylococcus aureus): 2 µg/mL (≈ 5.69 µM)
Cmax [4]: 2800 ng/mL

COc1c(N2C[C@@H]3CCCN[C@@H]3C2)c(F)cc2c(=O)c(C(=O)O)cn(C3CC3)c12 [MOXIFLOXACIN]
AUC [5]: 30000 ng·h/mL
MIC90 (Klebsiella): 0.12 µg/mL (≈ 0.299 µM)
Cmax [6]: 3100 ng/mL
MIC90 (Escherichia coli): 0.06 µg/mL (≈ 0.149 µM)
MIC90 (Haemophilus influenzae): 0.06 µg/mL (≈ 0.149 µM)
MIC90 (Pseudomonas aeruginosa): 8 µg/mL (≈ 19.9 µM)
MIC90 (Enterococcus): 2 µg/mL (≈ 4.98 µM)
MIC90 (Staphylococcus aureus): 0.06 µg/mL (≈ 0.149 µM)

CCn1cc(C(=O)O)c(=O)c2ccc(C)nc21 [NALIDIXIC ACID]
MIC90 (Bacteroides fragilis): > 64 µg/mL
MIC90 (Klebsiella): 16 µg/mL (≈ 68.9 µM)
MIC90 (Clostridium perfringens): > 64 µg/mL
half-life [7]: 1.5 h
MIC90 (Streptococcus pyogenes): > 64 µg/mL
MIC90 (Streptococcus pneumoniae): > 64 µg/mL
MIC90 (Escherichia coli): 8 µg/mL (≈ 34.4 µM)
MIC90 (Haemophilus influenzae): 2 µg/mL (≈ 8.61 µM)
MIC90 (Pseudomonas aeruginosa): > 64 µg/mL
MIC90 (Enterococcus): > 64 µg/mL
MIC90 (Staphylococcus aureus): > 64 µg/mL

CCn1cc(C(=O)O)c(=O)c2cc(F)c(N3CCNCC3)cc21 [NORFLOXACIN]
Cmax [8]: 1500 ng/mL
MIC90 (Bacteroides fragilis): > 64 µg/mL
MIC90 (Klebsiella): 0.5 µg/mL (≈ 1.57 µM)
MIC90 (Streptococcus pyogenes): 4 µg/mL (≈ 12.5 µM)
AUC [9]: 10000 ng·h/mL
MIC90 (Streptococcus pneumoniae): 16 µg/mL (≈ 50.1 µM)
MIC90 (Escherichia coli): 0.12 µg/mL (≈ 0.376 µM)
MIC90 (Haemophilus influenzae): 0.06 µg/mL (≈ 0.188 µM)
MIC90 (Pseudomonas aeruginosa): 2 µg/mL (≈ 6.26 µM)
MIC90 (Enterococcus): 4 µg/mL (≈ 12.5 µM)
fraction unbound [10]: 0.85
MIC90 (Staphylococcus aureus): 1 µg/mL (≈ 3.13 µM)
half-life [11]: 3 h

CC1COc2c(N3CCN(C)CC3)c(F)cc3c(=O)c(C(=O)O)cn1c23 (centres undefined) [OFLOXACIN]
Cmax [8]: 4800 ng/mL
MIC90 (Bacteroides fragilis): 16 µg/mL (≈ 44.3 µM)
MIC90 (Klebsiella): 0.5 µg/mL (≈ 1.38 µM)
MIC90 (Clostridium perfringens): 1 µg/mL (≈ 2.77 µM)
MIC90 (Streptococcus pyogenes): 2 µg/mL (≈ 5.53 µM)
AUC [9]: 64000 ng·h/mL
MIC90 (Streptococcus pneumoniae): 2 µg/mL (≈ 5.53 µM)
MIC90 (Escherichia coli): 0.12 µg/mL (≈ 0.332 µM)
MIC90 (Haemophilus influenzae): 0.03 µg/mL (≈ 0.083 µM)
MIC90 (Pseudomonas aeruginosa): 4 µg/mL (≈ 11.1 µM)
MIC90 (Enterococcus): 2 µg/mL (≈ 5.53 µM)
fraction unbound [10]: 0.6
MIC90 (Staphylococcus aureus): 0.5 µg/mL (≈ 1.38 µM)
half-life [11]: 6 h

C[C@@H]1CN(c2c(F)c(N)c3c(=O)c(C(=O)O)cn(C4CC4)c3c2F)C[C@H](C)N1 [SPARFLOXACIN]
MIC90 (Bacteroides fragilis): 4 µg/mL (≈ 10.2 µM)
Activity [12]: > 10%
MIC90 (Klebsiella): 0.5 µg/mL (≈ 1.27 µM)
MIC90 (Clostridium perfringens): 0.25 µg/mL (≈ 0.637 µM)
MIC90 (Streptococcus pyogenes): 1 µg/mL (≈ 2.55 µM)
MIC90 (Streptococcus pneumoniae): 0.5 µg/mL (≈ 1.27 µM)
MIC90 (Escherichia coli): 0.06 µg/mL (≈ 0.153 µM)
fraction unbound [1]: 0.6
MIC90 (Haemophilus influenzae): 0.03 µg/mL (≈ 0.0765 µM)
MIC90 (Pseudomonas aeruginosa): 4 µg/mL (≈ 10.2 µM)
half-life [2]: 18 h
MIC90 (Enterococcus): 2 µg/mL (≈ 5.1 µM)
Activity [13]: 2.9%
AUC [3]: 20000 ng·h/mL
MIC90 (Staphylococcus aureus): 0.12 µg/mL (≈ 0.306 µM)
Activity (Homo sapiens): > 10%
Activity [14]: 0.5 to 2%
Cmax [4]: 1000 ng/mL

CC1CN(c2cc3c(cc2F)c(=O)c(C(=O)O)cn3-c2ccc(F)cc2F)CCN1 (centres undefined) [TEMAFLOXACIN]
Activity [15]: 0.02%
Activity [16]: 0.02%
hemolysis [17]: 0.02%

N[C@@H]1[C@H]2CN(c3nc4c(cc3F)c(=O)c(C(=O)O)cn4-c3ccc(F)cc3F)C[C@@H]12 [TROVAFLOXACIN]
AUC [18]: 40000 ng·h/mL
Activity [19]: 2 to 11%
Cmax [20]: 2500 ng/mL
MIC90 (Streptococcus pneumoniae): 0.12 µg/mL (≈ 0.288 µM)
MIC90 (Escherichia coli): 0.06 µg/mL (≈ 0.144 µM)
MIC90 (Haemophilus influenzae): 0.01 µg/mL (≈ 0.024 µM)
MIC90 (Pseudomonas aeruginosa): 1 µg/mL (≈ 2.4 µM)
MIC90 (Enterococcus): 1 µg/mL (≈ 2.4 µM)
MIC90 (Staphylococcus aureus): 0.03 µg/mL (≈ 0.0721 µM)
Activity [21]: 12 to 16%
